According to patent publication US20230123334A1, “AMINO LIPID COMPOUND, PREPARATION METHOD THEREFOR, AND APPLICATION THEREOF” (SHENZHEN SHENXIN BIOTECHNOLOGY CO., LTD., priority 2020, published 2023):

Experiments:
HEK293 cells [1] = experiment: Preliminary screening as mRNA vectors, EGFP mRNA transfection of HEK293 cells; format: cell-based; details: HEK293 cells, 96-well plates, EGFP mRNA 50 ng per well; percentage of GFP fluorescent cells relative to total number of cells (Hoechst)
Method in brief: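 HEK293 cells in DMEM plus 10% FBS transfected in 96-well format with 50 ng EGFP mRNA per well; Lipofectamine2000 served as positive control. Read-out is the percentage of GFP-fluorescent cells among total cells, counted by Hoechst nuclear stain.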

HEK293 cells [2] = experiment: Preliminary screening as DNA vectors, GFP transfection of HEK293 cells; format: cell-based; details: HEK293 cells; lipid/DOPE liposome with 75 ng plasmid DNA (psin-EGFP-IRES-Puro); number of cells expressing GFP divided by total number of nuclei (Hoechst)
Method in brief: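 HEK293 cells in DMEM/10% FBS transfected with 75 ng EGFP plasmid per well complexed with amino lipid/DOPE liposomes in pH 5.6 sodium acetate. Hoechst nuclear stain added 20-24 h post-transfection, then cells cultured another 20-24 h. Confocal imaging gives GFP-positive cells as % of total nuclei.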

| SMILES | Absolute mRNA transfection efficiency in HEK293 cells (HEK293 cells [1]) | Absolute DNA transfection efficiency in HEK293 cells (HEK293 cells [2]) |
| --- | --- | --- |
| CCCCCCCCCCCCSc1nc(NCCCN2CCN(C)CC2)nc(SCCCCCCCCCCCC)n1 [Compound S12S12D9] | 1.3% | 1.9% |
| CCCCCCCCCCCCSc1nc(NCC2CCN(C)CC2)nc(SCCCCCCCCCCCC)n1 [Compound S12S12D10] | 12.8% | 2.7% |
| CCCCCCCCCCCCCCSc1nc(NCCN(C)C)nc(SCCCCCCCCCCCC)n1 [Compound S12S14D1] | 0.0% | 0.6% |
| CCCCCCCCCCCCCCSc1nc(NCCN2CCOCC2)nc(SCCCCCCCCCCCC)n1 [Compound S12S14D2] | 0.2% | 0.1% |
| CCCCCCCCCCCCCCSc1nc(NCCN2CCCC2)nc(SCCCCCCCCCCCC)n1 [Compound S12S14D3] | 6.3% | 6.5% |
| CCCCCCCCCCCCCCSc1nc(NCCN2CCCCC2)nc(SCCCCCCCCCCCC)n1 [Compound S12S14D4] | 14.0% | 6.7% |
| CCCCCCCCCCCCCCSc1nc(NCCN2CCN(C)CC2)nc(SCCCCCCCCCCCC)n1 [Compound S12S14D5] | 3.6% | 0.2% |
| CCCCCCCCCCCCCCSc1nc(NCCCN(C)C)nc(SCCCCCCCCCCCC)n1 [Compound S12S14D6] | 4.6% | 4.0% |
| CCCCCCCCCCCCCCSc1nc(NCCN(CC)CC)nc(SCCCCCCCCCCCC)n1 [Compound S12S14D7] | 0.9% | 3.3% |
| CCCCCCCCCCCCCCSc1nc(NCCCN2CCOCC2)nc(SCCCCCCCCCCCC)n1 [Compound S12S14D8] | 1.3% | 3.7% |
| CCCCCCCCCCCCCCSc1nc(NCCCN2CCN(C)CC2)nc(SCCCCCCCCCCCC)n1 [Compound S12S14D9] | 2.5% | 0.8% |
| CCCCCCCCCCCCCCSc1nc(NCC2CCN(C)CC2)nc(SCCCCCCCCCCCC)n1 [Compound S12S14D10] | 30.4% | 6.5% |
| CCCCCCCCCCCCCCCSc1nc(NCCN(C)C)nc(SCCCCCCCCCCCC)n1 [Compound S12S15D1] | 4.1% | 0.8% |
| CCCCCCCCCCCCCCCSc1nc(NCCN2CCOCC2)nc(SCCCCCCCCCCCC)n1 [Compound S12S15D2] | 0.0% | 0.5% |
| CCCCCCCCCCCCCCCSc1nc(NCCN2CCCC2)nc(SCCCCCCCCCCCC)n1 [Compound S12S15D3] | 9.7% | 2.9% |
| CCCCCCCCCCCCCCCSc1nc(NCCN2CCCCC2)nc(SCCCCCCCCCCCC)n1 [Compound S12S15D4] | 3.3% | 3.8% |
| CCCCCCCCCCCCCCCSc1nc(NCCN2CCN(C)CC2)nc(SCCCCCCCCCCCC)n1 [Compound S12S15D5] | 1.4% | 0.1% |
| CCCCCCCCCCCCCCCSc1nc(NCCCN(C)C)nc(SCCCCCCCCCCCC)n1 [Compound S12S15D6] | 0.0% | 4.4% |
| CCCCCCCCCCCCCCCSc1nc(NCCN(CC)CC)nc(SCCCCCCCCCCCC)n1 [Compound S12S15D7] | 0.0% | 1.4% |
| CCCCCCCCCCCCCCCSc1nc(NCCCN2CCOCC2)nc(SCCCCCCCCCCCC)n1 [Compound S12S15D8] | 3.2% | 3.1% |
